row,Structure (SMILES),melting point
1,"O=C(Nc1ccc(Cl)c(C(F)(F)F)c1)Nc1ccc2ncc(-c3ccccc3)nc2n1 [Compound 16, 1-(4-chloro-3-trifluoromethyl-phenyl)-3-(3-phenyl-pyrido[2,3-b]pyrazin-6-yl)-urea]",250 °C
2,"C=CCNC(=S)Nc1cnc2nc(-c3ccc([N+](=O)[O-])cc3)cnc2c1 [Compound 137, 1-Allyl-3-[3-(4-nitro-phenyl)-pyrido[2,3-b]pyrazin-7-yl]-thiourea]",250 °C (dec.)
3,"C/C=C/NC(=S)Nc1ccc2nc(-c3ccc(O)cc3)c(-c3ccc(O)cc3)nc2n1 [Compound 33, 1-[2,3-bis-(4-hydroxy-phenyl)-pyrido[2,3-b]pyrazin-6-yl]-3-((E)-propenyl)-thiourea]",240 °C (dec.)
4,"C=CCNC(=S)Nc1ccc2nc(-c3ccc(O)cc3)c(-c3ccc(O)cc3)nc2n1 [Compound 32, 1-allyl-3-[2,3-bis-(4-hydroxy-phenyl)-pyrido[2,3-b]pyrazin-6-yl]-thiourea]",270 °C (dec.)
5,"O=[N+]([O-])c1ccc(NC(=S)Nc2ccc3ncc(-c4ccc5ccccc5c4)nc3n2)cc1 [Compound 8, 1-(3-naphth-2-yl-pyrido[2,3-b]pyrazin-6-yl)-3-(4-nitro-phenyl)-thiourea]",260 to 261 °C (dec.)
6,"C=CCNC(=S)Nc1ccc2ncc(-c3ccc4c(c3)OCO4)nc2n1 [Compound 28, 1-allyl-3-(3-benzo[1,3]dioxol-5-yl-pyrido[2,3-b]pyrazin-6-yl)-thiourea]",218 to 220 °C (dec.)
7,"C=CCNC(=S)Nc1ccc2nc(-c3ccc(O)cc3)cnc2n1 [Compound 34, 1-allyl-3-[2-(4-hydroxy-phenyl)-pyrido[2,3-b]pyrazin-6-yl]-thiourea]",260 °C (dec.)
8,"C=C(C)CNC(=S)Nc1ccc2ncc(-c3ccc(OC)cc3)nc2n1 [Compound 3, 1-[3-(4-methoxy-phenyl)-pyrido[2,3-b]pyrazin-6-yl]-3-(2-methyl-allyl)-thiourea]",251 to 252 °C (dec.)
9,"C=CCNC(=S)Nc1ccc2ncc(-c3ccc(OC)cc3)nc2n1 [Compound 6, 1-allyl-3-[3-(4-methoxy-phenyl)-pyrido[2,3-b]pyrazin-6-yl]-thiourea]",240 to 241 °C (dec.)

# Second part, the molecule after the results:
row,melting point,Structure (SMILES)
1,298 to 299 °C,"Cc1ccc(NC(=O)Nc2ccc3ncc(-c4ccccc4)nc3n2)cc1 [Compound 15, 1-(3-phenyl-pyrido[2,3-b]pyrazin-6-yl)-3-p-tolyl-urea]"
2,253 to 254 °C,"CNC(=S)Nc1ccc2ncc(-c3ccccc3)nc2n1 [Compound 12, 1-methyl-3-(3-phenyl-pyrido[2,3-b]pyrazin-6-yl)-thiourea]"
3,225 to 226 °C (dec.),"C=C(C)CNC(=S)Nc1ccc2ncc(-c3ccccc3)nc2n1 [Compound 4, 1-(2-methyl-allyl)-3-(3-phenyl-pyrido[2,3-b]pyrazin-6-yl)-thiourea]"
4,229 to 230 °C,"CC(C)NC(=S)Nc1ccc2ncc(-c3ccccc3)nc2n1 [Compound 19, 1-isopropyl-3-(3-phenyl-pyrido[2,3-b]pyrazin-6-yl)-thiourea]"
5,232 to 233 °C,"S=C(NCc1ccccc1)Nc1ccc2ncc(-c3ccccc3)nc2n1 [Compound 13, 1-benzyl-3-(3-phenyl-pyrido[2,3-b]pyrazin-6-yl)-thiourea]"
6,230 to 232 °C,"S=C(Nc1ccc2ncc(-c3ccccc3)nc2n1)NC1CCCCC1 [Compound 18, 1-cyclohexyl-3-(3-phenyl-pyrido[2,3-b]pyrazin-6-yl)-thiourea]"
7,250 °C (dec.),"O=C(NCCc1ccccc1)Nc1ccc2ncc(-c3ccccc3)nc2n1 [Compound 35, 1-Phenethyl-3-(3-phenyl-pyrido[2,3-b]pyrazin-6-yl)-urea]"
8,205 °C (dec.),"C=CCNC(=S)Nc1ccc2ncc(-c3cccc(O)c3)nc2n1 [Compound 27, 1-allyl-3-[3-(3-hydroxy-phenyl)-pyrido[2,3-b]pyrazin-6-yl]-thiourea]"
